Active and inactive are the calls of the source. The calls are words filed in the database; no cut-off is given here.
Columns and labels:
[1] = target: Histone-lysine N-methyltransferase EZH2 (Homo sapiens, UniProt O75530+Q09028+Q15022+Q15910); test: Inhibition of N-terminally FLAG-tagged wild type EZH2 in EZH2/SUZ12/EED/RbAp48 complex (unknown origin) expressed in baculovirus infected in SF9 cells assessed as inhibition of methylation of nucleosomes at H3K27 by scintillation counting in presence of [3H]SAM
Histone-lysine N-methyltransferase EZH2 (Homo sapiens, UniProt O75530+Q09028+Q15022+Q15910), sequence (Q15910 whole entry, one chain of several): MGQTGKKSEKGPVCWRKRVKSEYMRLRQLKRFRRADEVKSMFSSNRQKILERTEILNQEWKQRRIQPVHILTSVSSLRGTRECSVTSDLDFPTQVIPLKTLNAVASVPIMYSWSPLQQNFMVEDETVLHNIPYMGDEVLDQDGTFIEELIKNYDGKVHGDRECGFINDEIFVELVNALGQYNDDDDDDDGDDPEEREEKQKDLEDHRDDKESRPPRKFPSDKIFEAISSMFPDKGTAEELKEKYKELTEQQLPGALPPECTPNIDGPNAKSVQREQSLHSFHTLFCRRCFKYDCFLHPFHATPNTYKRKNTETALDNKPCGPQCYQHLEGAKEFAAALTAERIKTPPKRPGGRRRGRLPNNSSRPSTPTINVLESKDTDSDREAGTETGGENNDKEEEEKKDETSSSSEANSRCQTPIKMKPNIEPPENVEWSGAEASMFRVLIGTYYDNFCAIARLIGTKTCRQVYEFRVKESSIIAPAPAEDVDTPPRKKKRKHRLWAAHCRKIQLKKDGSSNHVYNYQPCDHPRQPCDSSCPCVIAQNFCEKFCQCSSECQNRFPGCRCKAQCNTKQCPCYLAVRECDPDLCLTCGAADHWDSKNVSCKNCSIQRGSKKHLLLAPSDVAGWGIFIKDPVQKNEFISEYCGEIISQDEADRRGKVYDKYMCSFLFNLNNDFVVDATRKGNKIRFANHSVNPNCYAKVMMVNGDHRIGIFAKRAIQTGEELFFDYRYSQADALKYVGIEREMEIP

[2] = target: Histone-lysine N-methyltransferase EZH2 (Homo sapiens, UniProt O75530+Q09028+Q15022+Q15910, Y641N); test: Inhibition of N-terminally FLAG-tagged EZH2 Y641N mutant in EZH2/SUZ12/EED/RbAp48 complex (unknown origin) expressed in baculovirus infected in SF9 cells assessed as inhibition of methylation of nucleosomes at H3K27 by scintillation counting in presence of [3H]SAM
Histone-lysine N-methyltransferase EZH2 (Homo sapiens, UniProt O75530+Q09028+Q15022+Q15910, Y641N), sequence (Q15910 whole entry Y641N, one chain of several): as the sequence (Q15910 whole entry, one chain of several) above, with Y641N counted along it

[3] = target: T1, Histone-lysine N-methyltransferase SETD7 (Homo sapiens, UniProt Q8WTS6); test: Inhibition of SETD7 (unknown origin) by HMT assay
T1 sequence (Q8WTS6 whole entry): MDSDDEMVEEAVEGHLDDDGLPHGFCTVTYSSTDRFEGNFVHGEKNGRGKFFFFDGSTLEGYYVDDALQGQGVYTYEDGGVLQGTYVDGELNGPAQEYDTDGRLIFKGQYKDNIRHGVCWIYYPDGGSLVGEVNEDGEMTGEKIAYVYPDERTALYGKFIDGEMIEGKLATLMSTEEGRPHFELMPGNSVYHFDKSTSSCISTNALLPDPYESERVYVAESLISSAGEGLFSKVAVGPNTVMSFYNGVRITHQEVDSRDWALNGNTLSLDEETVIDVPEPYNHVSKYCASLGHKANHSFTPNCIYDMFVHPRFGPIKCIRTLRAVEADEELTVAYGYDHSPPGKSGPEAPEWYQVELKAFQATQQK

[4] = target: Histone-lysine N-methyltransferase SETDB1 (Homo sapiens, UniProt Q15047); test: Inhibition of SETDB1 (unknown origin) by HMT assay
[5] = target: Histone-lysine N-methyltransferase 2A (Homo sapiens, UniProt Q03164); test: Inhibition of MLL (unknown origin) by HMT assay
[6] = target: N-lysine methyltransferase SMYD2 (Homo sapiens, UniProt Q9NRG4); test: Inhibition of SMYD2 (unknown origin) by HMT assay
N-lysine methyltransferase SMYD2, sequence (Q9NRG4 whole entry): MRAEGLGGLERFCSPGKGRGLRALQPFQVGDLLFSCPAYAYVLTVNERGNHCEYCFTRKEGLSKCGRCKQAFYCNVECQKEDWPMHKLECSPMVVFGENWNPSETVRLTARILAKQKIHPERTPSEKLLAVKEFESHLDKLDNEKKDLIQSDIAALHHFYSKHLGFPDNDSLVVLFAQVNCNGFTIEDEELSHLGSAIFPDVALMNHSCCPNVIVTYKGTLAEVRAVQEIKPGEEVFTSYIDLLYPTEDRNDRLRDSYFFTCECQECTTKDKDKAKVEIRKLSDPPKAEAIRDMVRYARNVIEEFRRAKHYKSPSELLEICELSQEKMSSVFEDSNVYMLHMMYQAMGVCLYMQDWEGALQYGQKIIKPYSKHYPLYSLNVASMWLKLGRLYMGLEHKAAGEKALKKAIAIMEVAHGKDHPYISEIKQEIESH

[7] = target: Histone-lysine N-methyltransferase EZH2 (Homo sapiens) (UniProt Q15910); test: Inhibition of EZH2 (unknown origin) at 100 uM by cell-based assay
Histone-lysine N-methyltransferase EZH2 (Homo sapiens), sequence (Q15910 whole entry, looked up): as the sequence (Q15910 whole entry, one chain of several) above

[8] = target: Histone-lysine N-methyltransferase SUV39H2 (Homo sapiens, UniProt Q9H5I1); test: Inhibition of SUV39H2 (unknown origin) by HMT assay
Histone-lysine N-methyltransferase SUV39H2, sequence (Q9H5I1 whole entry): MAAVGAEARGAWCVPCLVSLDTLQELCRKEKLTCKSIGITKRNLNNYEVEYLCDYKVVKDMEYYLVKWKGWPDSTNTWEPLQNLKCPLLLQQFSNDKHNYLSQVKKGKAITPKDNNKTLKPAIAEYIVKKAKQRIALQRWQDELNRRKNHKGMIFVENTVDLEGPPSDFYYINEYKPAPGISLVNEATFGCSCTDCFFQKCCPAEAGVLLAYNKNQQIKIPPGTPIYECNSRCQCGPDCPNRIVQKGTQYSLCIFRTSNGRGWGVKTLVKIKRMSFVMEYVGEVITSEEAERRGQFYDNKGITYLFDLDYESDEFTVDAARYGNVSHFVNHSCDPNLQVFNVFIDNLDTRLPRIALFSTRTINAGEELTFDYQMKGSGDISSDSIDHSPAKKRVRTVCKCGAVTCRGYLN

[9] = target: Histone-lysine N-methyltransferase KMT5C (Homo sapiens, UniProt Q86Y97); test: Inhibition of SUV420H2 (unknown origin) by HMT assay
Histone-lysine N-methyltransferase KMT5C, sequence (Q86Y97 whole entry): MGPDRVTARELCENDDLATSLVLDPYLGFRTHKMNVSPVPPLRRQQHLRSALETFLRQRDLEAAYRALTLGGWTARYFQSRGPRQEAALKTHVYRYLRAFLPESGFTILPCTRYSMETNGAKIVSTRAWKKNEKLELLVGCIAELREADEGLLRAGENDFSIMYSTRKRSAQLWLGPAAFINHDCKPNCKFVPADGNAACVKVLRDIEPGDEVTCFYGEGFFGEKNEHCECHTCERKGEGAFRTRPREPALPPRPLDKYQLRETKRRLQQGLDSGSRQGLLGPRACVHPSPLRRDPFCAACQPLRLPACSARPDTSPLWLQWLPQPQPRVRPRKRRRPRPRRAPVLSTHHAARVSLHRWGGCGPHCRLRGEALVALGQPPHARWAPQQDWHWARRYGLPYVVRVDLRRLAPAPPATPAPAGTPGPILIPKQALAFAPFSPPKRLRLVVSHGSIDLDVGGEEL

[10] = target: T2, Histone-lysine N-methyltransferase EHMT1 (Homo sapiens, UniProt Q9H9B1); test: Inhibition of EHMT1 (unknown origin) by HMT assay
T2 sequence (Q9H9B1 whole entry): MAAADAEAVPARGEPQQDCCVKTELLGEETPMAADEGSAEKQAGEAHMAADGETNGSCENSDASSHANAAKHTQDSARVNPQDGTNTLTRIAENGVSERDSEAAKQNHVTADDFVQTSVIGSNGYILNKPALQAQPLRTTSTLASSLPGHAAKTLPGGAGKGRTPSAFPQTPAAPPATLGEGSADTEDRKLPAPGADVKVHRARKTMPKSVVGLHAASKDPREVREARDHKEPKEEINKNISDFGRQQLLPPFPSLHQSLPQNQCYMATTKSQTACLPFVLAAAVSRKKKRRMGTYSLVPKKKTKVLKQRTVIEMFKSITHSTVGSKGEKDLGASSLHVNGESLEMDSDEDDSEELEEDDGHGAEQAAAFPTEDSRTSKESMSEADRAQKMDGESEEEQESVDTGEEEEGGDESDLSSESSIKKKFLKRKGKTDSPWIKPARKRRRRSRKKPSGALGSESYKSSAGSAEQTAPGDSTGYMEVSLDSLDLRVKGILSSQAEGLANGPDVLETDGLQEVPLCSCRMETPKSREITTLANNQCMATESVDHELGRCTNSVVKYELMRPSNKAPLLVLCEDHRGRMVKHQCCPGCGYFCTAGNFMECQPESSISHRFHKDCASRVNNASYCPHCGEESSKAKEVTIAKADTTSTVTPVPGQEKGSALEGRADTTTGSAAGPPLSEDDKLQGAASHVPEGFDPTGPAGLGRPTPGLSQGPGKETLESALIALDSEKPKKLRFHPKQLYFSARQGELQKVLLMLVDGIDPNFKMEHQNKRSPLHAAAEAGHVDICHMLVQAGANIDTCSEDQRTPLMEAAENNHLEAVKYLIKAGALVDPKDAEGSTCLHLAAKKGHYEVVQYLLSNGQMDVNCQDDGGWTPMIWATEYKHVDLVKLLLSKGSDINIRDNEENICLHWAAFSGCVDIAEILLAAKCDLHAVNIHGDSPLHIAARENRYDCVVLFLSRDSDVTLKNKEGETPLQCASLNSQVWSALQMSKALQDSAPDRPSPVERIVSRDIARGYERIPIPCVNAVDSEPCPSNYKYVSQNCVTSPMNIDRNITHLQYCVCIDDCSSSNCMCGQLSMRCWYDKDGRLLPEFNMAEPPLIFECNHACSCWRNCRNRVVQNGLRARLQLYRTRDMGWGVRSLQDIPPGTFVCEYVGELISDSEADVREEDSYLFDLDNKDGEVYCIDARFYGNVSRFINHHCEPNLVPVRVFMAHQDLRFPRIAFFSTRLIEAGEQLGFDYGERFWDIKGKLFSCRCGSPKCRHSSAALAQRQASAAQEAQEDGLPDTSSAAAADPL

Row | SMILES | IC50 [1] [µM] | also measured
1 | Nc1ncnc2c1ncn2[C@@H]1O[C@H](CSCC[C@H](N)C(=O)NCc2cnn(-c3ccc(F)cc3)c2)[C@@H](O)[C@H]1O | 1.4 | IC50 [2]: 0.6 µM
2 | Nc1ncnc2c1ncn2[C@@H]1O[C@H](CSCC[C@H](N)C(=O)NCC2CC2)[C@@H](O)[C@H]1O | 60 | –
3 | Nc1ncnc2c1ncn2[C@@H]1O[C@H](CSCC[C@H](N)C(=O)NCc2cc(C3CCC3)[nH]n2)[C@@H](O)[C@H]1O | 3 | IC50 [2]: 1 µM
4 | CC(C)(C)c1cc(CNC(=O)[C@@H](N)CCSC[C@H]2O[C@@H](n3cnc4c(N)ncnc43)[C@H](O)[C@@H]2O)n[nH]1 | 14 | IC50 [2]: 3.6 µM
5 | CCCCNC(=O)[C@@H](N)CCSC[C@H]1O[C@@H](n2cnc3c(N)ncnc32)[C@H](O)[C@@H]1O | 19 | –
6 | CN1CCn2nc(CNC(=O)[C@@H](N)CCSC[C@H]3O[C@@H](n4cnc5c(N)ncnc54)[C@H](O)[C@@H]3O)cc2C1 | 50 | –
7 | CCCCNC(=O)C(N)CCSC[C@H]1O[C@@H](n2cnc3c(N)ncnc32)[C@H](O)[C@@H]1O (mixture of isomers) | 24 | –
8 | Nc1ncnc2c1ncn2[C@@H]1O[C@H](CSCC[C@H](N)C(=O)NCc2cc3n(n2)CCN(Cc2ccccc2)C3)[C@@H](O)[C@H]1O | 8 | IC50 [2]: 2.8 µM
9 | Nc1ncnc2c1ncn2[C@@H]1O[C@H](CSCC[C@H](N)C(=O)O)[C@@H](O)[C@H]1O [S-ADENOSYLHOMOCYSTEINE] | – | IC50 [3]: 30 µM; IC50 [4]: 2.2 µM; IC50 [5]: 2.3 µM; IC50 [6]: 0.18 µM; inhibition [7]: inactive; IC50 [8]: 32 µM; IC50 [9]: 10 µM; IC50 [10]: 0.23 µM
10 | Cn1nc(CNC(=O)[C@@H](N)CCSC[C@H]2O[C@@H](n3cnc4c(N)ncnc43)[C@H](O)[C@@H]2O)cc1C1CCC1 | 40 | –

Now from value to molecule, other results behind:

Row | IC50 [1] [µM] | SMILES | also measured
11 | 40 | COCc1cc(CNC(=O)[C@@H](N)CCSC[C@H]2O[C@@H](n3cnc4c(N)ncnc43)[C@H](O)[C@@H]2O)n[nH]1 | –
12 | 120 | Nc1ncnc2c1ncn2[C@@H]1O[C@H](CSCC[C@H](N)C(=O)NCc2ccccc2)[C@@H](O)[C@H]1O | –
13 | 40 | Cc1cc(CNC(=O)[C@@H](N)CCSC[C@H]2O[C@@H](n3cnc4c(N)ncnc43)[C@H](O)[C@@H]2O)n(C)n1 | –
14 | 50 | CCn1cc(CNC(=O)[C@@H](N)CCSC[C@H]2O[C@@H](n3cnc4c(N)ncnc43)[C@H](O)[C@@H]2O)cn1 | –
15 | 24 | Nc1ncnc2c1ncn2[C@@H]1O[C@H](CSCC[C@H](N)C(=O)NCc2cnn(Cc3ccccc3)c2)[C@@H](O)[C@H]1O | –
16 | 28 | Cc1ccccc1-n1cc(CNC(=O)[C@@H](N)CCSC[C@H]2O[C@@H](n3cnc4c(N)ncnc43)[C@H](O)[C@@H]2O)cn1 | –

From ChEMBL document CHEMBL3396964, “SAH derived potent and selective EZH2 inhibitors” (Bioorg Med Chem Lett, 2015)
